Laboratory results reported in patent publication US11801256B2, “Antidepressant-psilocybin co-treatment to assist psychotherapy” (Universitätsspital Basel, priority 2021, dated 2023).

Key:
healthy subjects [1] = test: QTc time; type: in vivo, human; settings: escitalopram pretreatment compared with placebo
Text: Exclusion criteria: Chronic or acute medical condition, including a history of seizures. Current or previous major psychiatric disorder (e.g. psychotic disorders, mania/hypomania, anxiety disorders, and substance abuse). Psychotic disorder in first-degree relatives, not including psychotic disorders secondary to an apparent medical reason, e.g. brain injury, dementia, or lesions of the brain. Illicit substance use (with the exception of cannabis) more than 10 times or any time within the previous two months. History of an angle closure glaucoma. Pregnant or nursing women. Participation in another clinical trial (currently or within the last 30 days). […] A corrected QT time (QTc), calculated by Bazett's formula, of over 450 milliseconds in males and over 470 milliseconds in females. Tobacco smoking (>10 cigarettes/day). Consumption of alcoholic drinks (>10 drinks/week). Bodyweight <45 kg.

healthy subjects [2] = test: Subjective effects, visual analog scales (VAS), clinical study; type: in vivo, human
Description: Treatment order was random and counterbalanced.
Study procedures: Subjects took part in a 2-hour screening session, two 9.5-hour test sessions where the psilocybin was administered and a 1-hour end-of-study visit. The subjects were informed about the study both verbally and by the approved written consent form regarding the altered state of consciousness, the study procedures and associated risks. The investigator and the subject both personally signed and dated the consent form as confirmation of consent. Subjects were screened using a semi-structured clinical interview for DSM-IV (Diagnostic and Statistical Manual Version 4) (Wittchen et al., 1997) to exclude those with a personal or family (first-degree relative) axis I major psychiatric disorder (acute or past) or a history of illicit drug dependence. Axis I major psychiatric disorders included also addiction disorders. The sessions were conducted in a calm standard hospital room. Only one research subject and one investigator were present during the test sessions. The test sessions began at 9 AM. The subjects then underwent baseline measurements. […] Psilocybin was administered at 11:00 AM. The outcome measures were repeatedly assessed for 7 hours. The subjects were under constant supervision by an investigator until 6 PM. Thus, the subjects were never alone during the 7 hours after drug administration. The subjects were sent home at 6:30 PM.
Subjective Effects Questionnaire (Visual Analog Scales, VAS): VAS was repeatedly used to assess subjective alterations in consciousness over time. Single scales were presented as 100 mm horizontal lines marked with “not at all” on the left and “extremely” on the right. The following VAS items were used: “any drug effect”, “good drug effect”, “bad drug effect”, “drug liking”, “drug high”, “stimulated”, “fear”, “happy”, “content”, “trust”, “talkative”, “perception of time”, “open”, “concentration”, “speed of thinking”, “feeling close to others”, “wanting to be hugged”, “wanting to hug someone”, “desire to be alone”, “desire to be with others”, and “ego dissolution”. The VASs were presented as 100-mm horizontal lines (0-100%), marked from “not at all” on the left to “extremely” on the right. Some VASs were bidirectional (±50%). Marked from “not at all” on the left (−50), to “normal” in the middle (0), to “extremely” on the right (+50).
The criterion for significance was p<0.05.

[3] = escitalopram 14 days pretreatment vs placebo, P=0.004
[4] = escitalopram pretreatment compared with placebo pretreatment (summary)

Question: `CN(C)CCC[C@@]1(c2ccc(F)cc2)OCc2cc(C#N)ccc21` [Escitalopram, escitalopram] was tested. Which “QTc time before or after psilocybin administration” value (healthy subjects [1]) did it give?
Answer: did not alter

Question: And the “effect on good drug effects of psilocybin” value (healthy subjects [2]; escitalopram 14 days pretreatment vs placebo)?
Answer: did not significantly reduce

Question: What about the “reduction of peak anxiety induced by psilocybin” value (healthy subjects [2]; [3]) of the same molecule?
Answer: 50%

Question: What about the “reduction of peak bad drug effects induced by psilocybin” value (healthy subjects [2]; [3]) of the same molecule?
Answer: 50%

Question: And the “effect on any drug effects in response to psilocybin” value (healthy subjects [2]; escitalopram 14 days pretreatment vs placebo, P=0.015)?
Answer: slightly, but significantly reduced

Question: And the “effect on the response to psilocybin, overall” value (healthy subjects [2]; escitalopram pretreatment 14 days (10 mg 7 days, 20 mg 7 days) before 25 mg psilocybin, compared to placebo pretreatment)?
Answer: only a small effect

Question: What about the “effect on psilocybin-induced fear” value (healthy subjects [2]; escitalopram pretreatment compared to psilocybin alone (summary)) of the same molecule?
Answer: reduced

Question: What about the “effect on anxiety of psilocybin (in words)” value (healthy subjects [2]; [4]) of the same molecule?
Answer: significantly reduced

Question: What about the “effect on bad drug effects of psilocybin (in words)” value (healthy subjects [2]; [4]) of the same molecule?
Answer: significantly reduced

Question: What about the “effect on the positive mood effects of psilocybin” value (healthy subjects [2]; [4]) of the same molecule?
Answer: no relevant effect
